Results from paper doi:10.1101/2024.10.27.620470v1 (biorxiv, 2024).

These molecules were tested against G3BP1NTF-2-GFP (Homo sapiens, UniProt Q13283) (assay: fluorescence plate PPI inhibition assay).
Chain of G3BP1NTF-2-GFP (Q13283 1-139): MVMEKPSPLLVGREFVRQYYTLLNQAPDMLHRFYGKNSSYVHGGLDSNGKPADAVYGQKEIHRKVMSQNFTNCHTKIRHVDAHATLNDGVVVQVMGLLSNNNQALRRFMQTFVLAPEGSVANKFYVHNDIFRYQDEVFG
Type: biochemical
With CN1C[C@H](C(=O)N[C@]2(C)O[C@@]3(O)[C@@H]4CCCN4C(=O)[C@H](Cc4ccccc4)N3C2=O)C[C@@H]2c3cccc4[nH]cc(c34)C[C@H]21 [Dihydroergotamine] the IC50 was 13.2 ± 5.8 µM.
Molecule O=C1NCN(c2ccccc2)C12CCN(CCCC(c1ccc(F)cc1)c1ccc(F)cc1)CC2 [Fluspirilene] has an IC50 of 10.5 ± 1.8 µM.
CNC(=O)c1c(F)cccc1Nc1nc(Nc2cc3c(cc2OC)CCN3C(=O)CN(C)C)nc2[nH]ccc12 [GSK1838705A] gave an IC50 of 14.5 ± 4.9 µM.
Work on COc1ccc(Br)cc1S(=O)(=O)NC(=O)/C=C/c1ccccc1Cc1ccc2ccccc2c1 [L-798106] yielded an IC50 of 11.6 ± 4.5 µM.
CC[C@H](NC(=O)c1c(C)c(-c2ccccc2)nc2ccccc12)c1ccccc1 [SB_222200] showed an IC50 of 13 ± 0.6 µM.
